Reference: article PMC8247983 (Chemmedchem, 2021)

Molecular target: hBChE (Homo sapiens, UniProt P06276)
Experiment: Ellman's assay
Type: biochemical

Chain of hBChE (P06276 29-602): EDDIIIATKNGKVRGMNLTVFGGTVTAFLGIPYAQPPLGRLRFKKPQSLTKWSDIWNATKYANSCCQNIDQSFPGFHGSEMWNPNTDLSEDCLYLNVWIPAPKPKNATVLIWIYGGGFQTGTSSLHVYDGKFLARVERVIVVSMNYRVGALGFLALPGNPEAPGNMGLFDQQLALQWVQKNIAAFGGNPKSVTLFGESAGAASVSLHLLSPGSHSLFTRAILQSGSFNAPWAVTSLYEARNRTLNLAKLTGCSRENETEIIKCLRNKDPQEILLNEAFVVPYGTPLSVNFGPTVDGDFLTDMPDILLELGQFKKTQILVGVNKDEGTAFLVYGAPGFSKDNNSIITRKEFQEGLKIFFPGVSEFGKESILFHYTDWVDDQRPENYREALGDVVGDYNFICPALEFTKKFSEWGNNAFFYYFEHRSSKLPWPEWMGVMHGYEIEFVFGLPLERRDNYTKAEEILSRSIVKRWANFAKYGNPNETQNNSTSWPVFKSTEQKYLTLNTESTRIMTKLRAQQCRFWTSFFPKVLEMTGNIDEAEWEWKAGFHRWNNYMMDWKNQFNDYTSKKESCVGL

How did the IC50 turn out when `CN1c2ccc(OC(=O)NCCCCCCN3CCOC(CF)C3)cc2CN2CCc3ccccc3C21` (racemic) [compound 2, 13‐Methyl‐5,8,13,13a‐tetrahydro‐6H‐isoquinolino[1,2‐b]quinazolin‐10‐yl‐{6‐[2‐(fluoromethyl)morpholino]‐hexyl}carbamate] was run?
Its IC50 is 66.6 nM.
